In US4272437A, “Antibacterial agents, and 4-thio azetidinone intermediates” (priority 1979, dated 1981):
In brackets after ≈: the same amount, converted by molar mass. Like-named read-outs stand apart in the source and are kept apart here.

Key:
E. coli A-15119 = assay: MIC, tube dilution, Escherichia coli A15119; type: cell-based; settings: Escherichia coli, A15119, E. coli A15119; overnight 37° C.; read-out: Minimum Inhibitory Concentration (M.I.C.)
Description: (§1) Representative compounds of the present invention were subjected to in vitro antibiotic screening against a variety of microorganisms.

[1] = system: Staph. aureus (Meth-Res) A-15097; assay: MIC, tube dilution, Staphylococcus aureus A15097 (Meth-Res); type: cell-based; settings: Staphylococcus aureus, Staph. aureus A15097 (Meth-Res); overnight 37° C.; read-out: Minimum Inhibitory Concentration (M.I.C.)
Description: as §1

Pr. mirabilis A-9900 = assay: MIC, tube dilution, Proteus mirabilis A9900; type: cell-based; settings: Proteus mirabilis, A9900, Proteus mirabilis A9900; overnight 37° C.; read-out: Minimum Inhibitory Concentration (M.I.C.)
Description: as §1

Str. pneumoniae A-9585 = assay: MIC, tube dilution, Streptococcus pneumoniae A9585; type: cell-based; settings: Streptococcus pneumoniae, A9585, Str. pneumoniae A9585; overnight 37° C., Nutrient Broth; read-out: Minimum Inhibitory Concentration (M.I.C.)
Description: as §1

Str. pyogenes A-9604 = assay: MIC, tube dilution, Streptococcus pyogenes A9604; type: cell-based; settings: Streptococcus pyogenes, A9604, Str. pyogenes A9604; overnight 37° C., Nutrient Broth; read-out: Minimum Inhibitory Concentration (M.I.C.)
Description: as §1

[2] = system: Staph. aureus (Pen-Res) A-9606; assay: MIC, tube dilution, Staphylococcus aureus A9606 (Pen-Res); type: cell-based; settings: Staphylococcus aureus, Staph. aureus A9606 (Pen-Res); overnight 37° C.; read-out: Minimum Inhibitory Concentration (M.I.C.)
Description: as §1

Staph. aureus A-9537 = assay: MIC, tube dilution, Staphylococcus aureus A9537; type: cell-based; settings: Staphylococcus aureus, A9537, Staph. aureus A9537; overnight 37° C., Nutrient Broth; read-out: Minimum Inhibitory Concentration (M.I.C.)
Description: as §1

E. coli A-20341-1 = assay: MIC, tube dilution, Escherichia coli A20341-1; type: cell-based; settings: Escherichia coli, A203411; E. coli A20341-1; overnight 37° C.; read-out: Minimum Inhibitory Concentration (M.I.C.)
Description: as §1

Ent. cloacae A-9656 = assay: MIC, tube dilution, Enterobacter cloacae A9656; type: cell-based; settings: Enterobacter cloacae, A9656, Enterobacter cloacae A9656; overnight 37° C.; read-out: Minimum Inhibitory Concentration (M.I.C.)
Description: as §1

K. pneumoniae A15130 = assay: In vivo protection of mice, lethal infection with K. pneumoniae A15130; settings: Klebsiella pneumoniae, IM, 2 treatments, 1.2 × 10^3 organisms, read-out: PD50
Procedure: (§2) Representative compounds of the present invention were also tested in vivo in mice and their PD50 (dose of compound in mg/kg required to protect 50% of the treated mice against an otherwise lethal infection of a micro-organism) values determined with respect to the test organisms shown below.

Pr. morganii A-15153 = assay: MIC, tube dilution, Proteus morganii A15153; type: cell-based; settings: Morganella morganii, A15153, Proteus morganii A15153; overnight 37° C.; read-out: Minimum Inhibitory Concentration (M.I.C.)
Description: as §1

S. aureus A9537 = assay: In vivo protection of mice, lethal infection with S. aureus A9537; settings: Staphylococcus aureus, 2 treatments, read-out: PD50
Procedure: as §2

Ser. marcescens A-20019 = assay: MIC, tube dilution, Serratia marcescens A20019; type: cell-based; settings: Serratia marcescens, A20019, Serratia marcescens A20019; overnight 37° C.; read-out: Minimum Inhibitory Concentration (M.I.C.)
Description: as §1

S. pneumoniae A9585 = assay: In vivo protection of mice, lethal infection with S. pneumoniae A9585; settings: Streptococcus pneumoniae, A9585, im, 2 treatments, read-out: PD50
Procedure: as §2

Ps. aeruginosa A-9843A = assay: MIC, tube dilution, Pseudomonas aeruginosa A9843A; type: cell-based; settings: Pseudomonas aeruginosa, A9843A, read-out: Minimum Inhibitory Concentration (M.I.C.), Pseudomonas aeruginosa A9843A; overnight 37° C.
Description: as §1

Ps. aeruginosa A-21213 = assay: MIC, tube dilution, Pseudomonas aeruginosa A21213; type: cell-based; settings: Pseudomonas aeruginosa A21213; overnight 37° C.; read-out: Minimum Inhibitory Concentration (M.I.C.)
Description: as §1

Ent. cloacae A-9659 = assay: MIC, tube dilution, Enterobacter cloacae A9659; type: cell-based; settings: Enterobacter cloacae, A9659, Enterobacter cloacae A9659; overnight 37° C.; read-out: Minimum Inhibitory Concentration (M.I.C.)
Description: as §1

Proteus vulgaris A21559 = assay: MIC, tube dilution, Proteus vulgaris A21559; type: cell-based; settings: Proteus vulgaris, A21559, Proteus vulgaris A21559; overnight 37° C.; read-out: Minimum Inhibitory Concentration (M.I.C.)
Description: as §1

E. coli A15119 = assay: In vivo protection of mice, lethal infection with E. coli A15119; settings: Escherichia coli, IM, 2 treatments, 7.4 × 10^5 organisms, read-out: PD50
Procedure: as §2

Proteus rettgeri A21203 = assay: MIC, tube dilution, Proteus rettgeri A21203; type: cell-based; settings: Providencia rettgeri, A21203, Proteus rettgeri A21203; overnight 37° C.; read-out: Minimum Inhibitory Concentration (M.I.C.)
Description: as §1

Proteus mirabilis A9900 = assay: In vivo protection of mice, lethal infection with Proteus mirabilis A9900; settings: IM, 2 treatments, 1.3 × 10^7 organisms, read-out: PD50
Procedure: as §2

Str. faecalis A-20688 = assay: MIC, tube dilution, Streptococcus faecalis A20688; type: cell-based; settings: Enterococcus faecalis, A20688, Str. faecalis A20688; overnight 37° C.; read-out: Minimum Inhibitory Concentration (M.I.C.)
Description: as §1

S. aureus A9606 = assay: In vivo protection of mice, lethal infection with S. aureus A9606; settings: Staphylococcus aureus, IM, 2 treatments, 8 × 10^8 organisms, read-out: PD50
Procedure: as §2

[3] = system: Klebsiella species A20468; assay: MIC, tube dilution, Klebsiella species A20468; type: cell-based; settings: Klebsiella species (K. pneumoniae) A20468; overnight 37° C.; read-out: Minimum Inhibitory Concentration (M.I.C.)
Description: as §1

S. pyogenes A9604 = assay: In vivo protection of mice, lethal infection with S. pyogenes A9604; settings: Streptococcus pyogenes, A9604, im, 2 treatments, read-out: PD50
Procedure: as §2

NCCCCC1=C(C(=O)O)N2C(=O)CC2S1 (stereo not drawn) [Example 73, 2-(4'-Aminobutyl)-penem-3-carboxylic Acid]
MIC (E. coli A-15119): 8 µg/mL (≈ 33 µM) | MIC [1]: 16 µg/mL (≈ 66 µM) | MIC (Pr. mirabilis A-9900): 8 µg/mL (≈ 33 µM) | MIC (Str. pneumoniae A-9585): 0.13 µg/mL (≈ 0.537 µM) | MIC (Str. pyogenes A-9604): 0.25 µg/mL (≈ 1.03 µM) | MIC [2]: 32 µg/mL (≈ 132 µM) | MIC (Staph. aureus A-9537): 0.25 µg/mL (≈ 1.03 µM) | MIC (E. coli A-20341-1): 125 µg/mL (≈ 516 µM) | MIC (Ent. cloacae A-9656): 32 µg/mL (≈ 132 µM) | ED50 (K. pneumoniae A15130): > 100 mg/kg | MIC (Pr. morganii A-15153): 32 µg/mL (≈ 132 µM) | ED50 (S. aureus A9537; A9537, im, IM, 1 × 10^6 organisms): 0.2 mg/kg | ED50 (S. aureus A9537; A9537, im, IM, 6.8 × 10^5 organisms): 0.2 mg/kg | ED50 (S. aureus A9537; A9537, im, IM, 8 × 10^5 organisms): 0.2 mg/kg | ED50 (S. aureus A9537; A9537, po, PO, 1 × 10^6 organisms): 0.5 mg/kg | MIC (Ser. marcescens A-20019): 16 µg/mL (≈ 66 µM) | ED50 (S. pneumoniae A9585; 3 × 10^4 organisms): 1.2 mg/kg | ED50 (S. pneumoniae A9585; 3.4 × 10^4 organisms): 1.56 mg/kg | MIC (Ps. aeruginosa A-9843A): > 125 µg/mL | MIC (Ps. aeruginosa A-21213): > 125 µg/mL | MIC (Ent. cloacae A-9659): 63 µg/mL (≈ 260 µM) | MIC (Proteus vulgaris A21559): 32 µg/mL (≈ 132 µM) | ED50 (E. coli A15119): 25 mg/kg | MIC (Proteus rettgeri A21203): 16 µg/mL (≈ 66 µM) | ED50 (Proteus mirabilis A9900): > 100 mg/kg | MIC (Str. faecalis A-20688): 32 µg/mL (≈ 132 µM) | ED50 (S. aureus A9606): 6.3 mg/kg | MIC [3]: > 125 µg/mL | ED50 (S. pyogenes A9604; 1.2 × 10^3 organisms): 0.89 mg/kg | ED50 (S. pyogenes A9604; 8 × 10^3 organisms): 0.51 mg/kg
